Measured values published in US8138205B2, “Heteroarylalkoxy-substituted quinolone inhibitors of PDE4” (Kalypsys, Inc., priority 2006, dated 2012).

Tests used:
[1] = Solubility Protocol; type: physicochemical; details: aqueous buffer, thermodynamic from solid; pH 7.4, 0.1 M sodium phosphate buffer
Experimental: About 5 mg of a compound was mixed with 500 μL of pH 7.4, 0.1 M sodium phosphate buffer. The mixture was adjusted to the original pH of 7.4 and then mixed overnight or longer via rotary mixing. The sample was checked for pH and then filtered through a 0.45 μm filter. If the pH drifted away, the sample was adjusted to its original pH and mixed for at least 15 minutes before filtration. The filtrate was analyzed using HPLC.

[2] = test system: Rabbits; assay: Lacrimal Gland Inflammation-Induced Dry Eye in Rabbits (corneal staining, tear breakup time); type: in vivo; details: topical ocular BID, rabbit ConA dry eye
Text: A more detailed description of the assay used herein may be found in Naglehout, T J et al. 2005, “Preservation of Tear Film Integrity and Inhibition of Corneal Injury by Dexamethasone in a Rabbit Model of Lacrimal Gland Inflammation-Induced Dry Eye,” J. Ocular Pharm. Ther., 21:2. 139-148, the disclosure of which is hereby incorporated by reference as if written herein in its entirety.
Rabbits (n=4/group) were randomized into treatment groups and dosed topically BID with maxidex vehicle or test drug beginning one day prior to initiation of dry eye. Each rabbit received bilateral lacrimal gland injections of saline or ConA (300 μg/30 μl) and topical ocular dosing was continued BID throughout the study.
Desiccation was initiated 1-2 hours following lacrimal gland injection by placing conscious rabbits in the environmental chamber (10-15% humidity/72° F.). Following 72 consecutive hours of exposure to this dry environment, the animals were anesthetized and sutures were placed in each upper and lower eyelid and lifted to form a corneal/conjunctival cup. Methylene blue dye (1 mL, 1% in dH2O) was added to the cup for three minutes and the excess removed by washing with 200 mL BSS®. The contralateral eye was then stained using the same procedure. Rabbits were euthanized immediately following the staining procedure and the eyes were excised. The corneas were isolated with a trephine and the 9.5-mm punch of the cornea was placed in 2 mL acetone/saturated sodium sulfate (7:3, vol./vol.). Absorbance of the extracted dye was determined at 660 nm.
TBUT was quantified in a separate group of treated animals. TBUT was determined by instilling 5 μL sodium fluorescein into the cul de sac and manually blinking the lids to distribute the fluorescein within the tear film. Under slit lamp observation, the eye was held open and the time whereby one or more black spots or streaks appeared in the precorneal tear film was recorded. The rabbits were euthanized 3 days following ConA injection.

[3] = Stability Protocol; type: physicochemical; details: pH 7.4 sodium phosphate buffer, preliminary shelf life (T90) estimated from stressed samples
Experimental: About 3 mg of a compound was dissolved in 3 mL of acetonitrile/water mixture (50/50). 100 μL of the stock solution was added to 20 mL each of 0.025 M pH 5.0 sodium acetate buffer (A5.0), 0.025 M pH 5.0 citrate buffer (C5.0) and 0.025 M pH 7.4 sodium phosphate buffer (P7.4). A two mL aliquot of each solution was kept in a glass vial equipped a cap lined with Teflon. Two vials containing the solution were stored at 4° C. or −20° C. as control. Other aliquots were stressed at RT, 45° C. or 75° C. for specified time check points, e.g. 1 day, 1 w, 2 w, 4 w, 8 w,12 w. The stressed samples in duplicate were assayed against the control using HPLC. The results were reported in % degradation. Preliminary shelf life (T90) was estimated assuming the rate of chemical degradation is double when the temperature is up 10° C.

[4] = biological target: T1, PDE4B (Homo sapiens, UniProt Q07343); assay: PDE/AK Biological Activity Assay (coupled PDE/adenylate kinase bioluminescent assay); type: biochemical; details: catalytic domain of PDE4B, read-out: PDE4 Enzyme IC50
T1 construct: hex-histidine (His6) (N); made in house
T1 sequence (Q07343 330-659 limits assumed, species assumed): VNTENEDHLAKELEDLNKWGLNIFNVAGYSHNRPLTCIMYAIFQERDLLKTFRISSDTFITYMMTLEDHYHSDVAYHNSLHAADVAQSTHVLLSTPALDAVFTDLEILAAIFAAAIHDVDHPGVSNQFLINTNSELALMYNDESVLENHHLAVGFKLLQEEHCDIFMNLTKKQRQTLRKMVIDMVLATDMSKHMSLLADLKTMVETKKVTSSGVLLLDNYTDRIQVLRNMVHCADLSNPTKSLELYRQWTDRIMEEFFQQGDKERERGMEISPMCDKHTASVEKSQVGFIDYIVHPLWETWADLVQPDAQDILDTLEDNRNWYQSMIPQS

| solubility [1] | Stability, pH 7.4 [3] | IC50 [4] | SMILES | Activity at Percent Concentration Tested ([2]; 1 percent) | Activity at Percent Concentration Tested ([2]; 1 × 10^−1 percent) | Activity at Percent Concentration Tested ([2]; 1 × 10^−2 percent) | Activity at Percent Concentration Tested ([2]; 1 × 10^−4 percent) | Activity at Percent Concentration Tested ([2]; 1 × 10^−6 percent) |
| --- | --- | --- | --- | --- | --- | --- | --- | --- |
| ≥ 1000 µg/mL | + (+ indicates ≧1 Year) | < 1000 nM | COc1ccc2c(Nc3c(Cl)cncc3Cl)cc(=O)[nH]c2c1OCCCCC(=O)O [Example 52, 5-(4-(3,5-dichloropyridin-4-ylamino)-7-methoxy-2-oxo-1,2-dihydroquinolin-8-yloxy)pentanoic acid] | – | – | – | – | – |
| ≥ 1000 µg/mL | + (+ indicates ≧1 Year) | < 1000 nM | COc1ccc2c(Nc3c(Cl)cncc3Cl)cc(=O)[nH]c2c1OCCCCCCC(=O)O [Example 53, 7-(4-(3,5-dichloropyridin-4-ylamino)-7-methoxy-2-oxo-1,2-dihydroquinolin-8-yloxy)heptanoic acid] | – | – | – | – | – |
| ≥ 1000 µg/mL | + (+ indicates ≧1 Year) | < 1000 nM | COc1ccc2c(Nc3c(Cl)cncc3Cl)cc(=O)[nH]c2c1OCCCC(N)=O [Example 56, 4-(4-(3,5-dichloropyridin-4-ylamino)-7-methoxy-2-oxo-1,2-dihydroquinolin-8-yloxy)butanamide] | – | – | – | – | – |
| ≥ 1000 µg/mL | + (+ indicates ≧1 Year) | < 1000 nM | COc1ccc2c(Nc3c(Cl)cncc3Cl)cc(=O)[nH]c2c1OCCCCC(N)=O [Example 57, 5-(4-(3,5-dichloropyridin-4-ylamino)-7-methoxy-2-oxo-1,2-dihydroquinolin-8-yloxy)pentanamide] | – | – | – | – | – |
| ≥ 1000 µg/mL | + (+ indicates ≧1 Year) | < 1000 nM | COc1ccc2c(Nc3c(Cl)cncc3Cl)cc(=O)[nH]c2c1OCCCCCC(N)=O [Example 58, 6-(4-(3,5-dichloropyridin-4-ylamino)-7-methoxy-2-oxo-1,2-dihydroquinolin-8-yloxy)hexanamide] | – | – | – | – | – |

The remaining lines, values behind:

| SMILES | solubility [1] | Stability, pH 7.4 [3] | IC50 [4] | Activity at Percent Concentration Tested ([2]; 1 percent) | Activity at Percent Concentration Tested ([2]; 1 × 10^−1 percent) | Activity at Percent Concentration Tested ([2]; 1 × 10^−2 percent) | Activity at Percent Concentration Tested ([2]; 1 × 10^−4 percent) | Activity at Percent Concentration Tested ([2]; 1 × 10^−6 percent) |
| --- | --- | --- | --- | --- | --- | --- | --- | --- |
| COc1ccc2c(Nc3c(Cl)cncc3Cl)cc(=O)[nH]c2c1OC1CCCC1 [Example 1, 8-(Cyclopentyloxy)-4-(3,5-dichloropyridin-4-ylamino)-7-methoxyquinolin-2(1H)-one] | ≥ 1000 µg/mL | + (+ indicates ≧1 Year) | – | Inactive | Inactive | Inactive | – | – |
| COc1ccc2c(Nc3c(C)cncc3C)cc(=O)[nH]c2c1OC1CCCC1 [Example 5, 8-(Cyclopentyloxy)-4-(3,5-dimethylpyridin-4-ylamino)-7-methoxyquinolin-2(1H)-one] | ≥ 1000 µg/mL | + (+ indicates ≧1 Year) | – | – | – | Inactive | Inactive | Inactive |
| COc1ccc2c(Nc3c(C)cncc3C)cc(=O)[nH]c2c1OCC1CC1 [Example 8, 8-(Cyclopropylmethoxy)-4-(3,5-dimethylpyridin-4-ylamino)-7-methoxyquinolin-2(1H)-one] | – | + (+ indicates ≧1 Year) | – | – | – | Inactive | Inactive | Inactive |
| COc1ccc2c(Nc3c(Cl)cncc3Cl)cc(=O)[nH]c2c1OCCCCCCCC(=O)O [Example 54, 8-(4-(3,5-dichloropyridin-4-ylamino)-7-methoxy-2-oxo-1,2-dihydroquinolin-8-yloxy)octanoic acid] | ≥ 1000 µg/mL | + (+ indicates ≧1 Year) | < 1000 nM | – | – | – | – | – |
